# Assay results: patent publication US11365410B2, “Production and monitoring of metabolites in cells” (President and Fellows of Harvard College, priority 2015, dated 2022)
# Key:
# DH5α cells = assay: Toxicity of inducer chemicals and solvents (growth); settings: for concentration at which toxicity was observed: E. coli without resistance gene; for effect on growth: arabinose high concentrations, glucarate highest concentration, ethanol low levels
# Description: (§1) Growth rate was measured for each combination of chemical and concentration during the exponential phase of growth. Rates were normalized to the growth rate of cells without any added chemical and plotted as bar height. Concentration of each inducer is indicated in the table, corresponding to the bar chart by order and color. […] Inducer concentrations mirror the concentrations used in the induction experiments.
# (§2) 150 μl of cells were transferred into 96-well plates and the assayed chemical was immediately added in triplicate before further incubation at 600 RPM and 37° C.
# (§3) Toxicity of the inducer chemicals was measured to help guide the choice of inducer concentration for biosensor applications. In applications where maximum protein production is the goal, toxicity will be less of a consideration. In contrast, sub-toxic induction is important for complex circuits that require the cell to maintain a healthy cell state.
# [1] = biological target: T1, AraC, regulator sequence SEQ ID NO: 10 (Escherichia coli, UniProt P0A9E0); assay: AraC biosensor induction (sfGFP reporter, Hill fit); format: cell-based, E. coli; settings: arabinose
# T1 construct: expressed in transfected cells; host or cells: E. coli DH5alpha transformed with pJKR-H (high copy) or pJKR-L (low copy) plasmid
# From the text: (§4) Plasmids were constructed using Gibson isothermal assembly methods (see Gibson, D. G., Young, L., Chuang, R. Y., Venter, J. C., Hutchison, C. A., 3rd and Smith, H. O. (2009) Enzymatic assembly of DNA molecules up to several hundred kilobases. Nat Methods, 6, 343-345 incorporated herein by reference in its entirety) and transformed into DH5α electrocompetent cells (New England Biolabs, Ipswich Mass.). […] Each inducible system was implemented on high and low copy plasmids. High copy pJKR-H plasmids were constructed with the pUC origin and beta lactamase antibiotic resistance marker derived from pUC19 (New England Biolabs, Ipswich Mass.). Low copy pJKR-L plasmids were constructed in the same way, except that the pUC origin was replaced by the SC101 origin (including repA) from pSC101 obtained from American Type Culture Collection (ATCC #37032). […] In both these plasmids the antibiotic resistance gene and origin of replication were replaced with p15a-aadA and colA-kanR. Each enzyme was cloned downstream of the constitutive promoter P2 (see Mutalik, V. K., Guimaraes, J. C., Cambray, G., Lam, C., Christoffersen, M. J., Mai, Q. A., Tran, A. B., Paull, M., Keasling, J. D., Arkin, A. P. et al. (2013) Precise and reliable gene expression via standard transcription and translation initiation elements. Nat Methods, 10, 354-360 hereby incorporated by reference in its entirety) and g10 RBS to create pJKR-MIOX variants. These expression plasmids used the colA origin of replication and kanamycin resistance gene for maintenance. Sequences and plasmids are available on Addgene (plasmid numbers 62557-62570).
# (§5) DH5α cells transformed with pJKR plasmids and maintained with carbenicillin were used in the induction assays. For each induction evaluation experiment, the cells were grown overnight to saturation before being diluted 1:100 into fresh LB media and incubated at 200 RPM and 37° C. […] Measurements were made on the same Biotek (Winooksi, Vt.) HT plate reader using the same settings: excitation 485/20, emission 528/20, 37° C. and fast shaking. Fluorescence and absorbance were measured every 10 minutes for 15 hours. Fluorescence was measured in arbitrary units (AFU) while optical density was determined by absorbance (OD). Normalized fluorescence was determined by dividing fluorescence by optical density for a given measurement. […]
# (§6) The ratio of fluorescence to absorbance at 600 nm was used in order to compensate for changes in cell density over time and between experiments (AFU/OD). […] This transfer function is plotted on a log-log scale in FIG. 1A and FIG. 1B to capture the wide range of inducer concentrations and resulting fluorescence values. […]
# [2] = biological target: MphR (E. coli), regulator sequence SEQ ID NO: 12 (Escherichia coli, UniProt Q9EVJ6); assay: MphR biosensor induction (sfGFP reporter, Hill fit); format: cell-based; settings: erythromycin
# From the text: as §4, §5, §6
# E. coli DH5α cells = assay: Toxicity of inducer chemicals (growth)
# Description: as §1, §2, §3
# [3] = biological target: T2, TtgR (Pseudomonas putida), regulator sequence SEQ ID NO: 14 (Pseudomonas putida, UniProt Q9AIU0); assay: TtgR biosensor induction (sfGFP reporter, Hill fit); format: cell-based; settings: naringenin
# T2 construct: expressed in transfected cells; host or cells: E. coli DH5alpha transformed with pJKR-H (high copy) or pJKR-L (low copy) plasmid
# From the text: as §4, §5, §6
# [4] = biological target: T3, TetR, regulator sequence SEQ ID NO: 13 (Escherichia coli, UniProt P04483); assay: cell-based; format: cell-based; settings: anhydrotetracycline; for Fold Induction: 15 h; for EC50: lumped half-maximal parameter from Hill fit
# T3 construct: expressed in transfected cells; host or cells: E. coli DH5alpha transformed with pJKR-H (high copy) or pJKR-L (low copy) plasmid
# From the text: Plasmids were constructed using Gibson isothermal assembly methods (see Gibson, D. G., Young, L., Chuang, R. Y., Venter, J. C., Hutchison, C. A., 3rd and Smith, H. O. (2009) Enzymatic assembly of DNA molecules up to several hundred kilobases. Nat Methods, 6, 343-345 incorporated herein by reference in its entirety) and transformed into DH5α electrocompetent cells (New England Biolabs, Ipswich Mass.). All standard induction plasmids contained the rrnB strong terminator (see Orosz, A., Boros, I. and Venetianer, P. (1991) Analysis of the complex transcription termination region of the Escherichia coli rrnB gene. European journal of biochemistry/FEBS, 201, 653-659 incorporated herein by reference in its entirety) followed by the inducible promoter and the strong g10 RBS (see Olins, P. O., Devine, C. S., Rangwala, S. H. and Kavka, K. S. (1988) The T7 phage gene 10 leader RNA, a ribosome-binding site that dramatically enhances the expression of foreign genes in Escherichia coli. Gene, 73, 227-235 incorporated herein by reference in its entirety) ‘[…],’ (SEQ ID NO:1) driving the expression of sfGFP (see Pedelacq, J. D., Cabantous, S., Tran, T., Terwilliger, T. C. and Waldo, G. S. (2006) Engineering and characterization of a superfolder green fluorescent protein. […] GFP was followed by a transcriptional terminator prefixing the proB promoter (see Davis, J. H., Rubin, A. J. and Sauer, R. T. (2011) Design, construction and characterization of a set of insulated bacterial promoters. Nucleic acids research, 39, 1131-1141 incorporated herein by reference in its entirety) and strong RBS ‘[…],’ (SEQ ID NO:2) which facilitated expression of the transcriptional regulator. Each inducible system was implemented on high and low copy plasmids. High copy pJKR-H plasmids were constructed with the pUC origin and beta lactamase antibiotic resistance marker derived from pUC19 (New England Biolabs, Ipswich Mass.). Low copy pJKR-L plasmids were constructed in the same way, except that the pUC origin was replaced by the SC101 origin (including repA) from pSC101 obtained from American Type Culture Collection (ATCC #37032). […] The plasmids MphR-p15a-SPEC-mCherry and AcuR-colA-KAN-CFP were designed for compatible maintenance with pJKR-H-CdaR. In both these plasmids the antibiotic resistance gene and origin of replication were replaced with p15a-aadA and colA-kanR. Each enzyme was cloned downstream of the constitutive promoter P2 (see Mutalik, V. K., Guimaraes, J. C., Cambray, G., Lam, C., Christoffersen, M. J., Mai, Q. A., Tran, A. B., Paull, M., Keasling, J. D., Arkin, A. P. et al. (2013) Precise and reliable gene expression via standard transcription and translation initiation elements. Nat Methods, 10, 354-360 hereby incorporated by reference in its entirety) and g10 RBS to create pJKR-MIOX variants. These expression plasmids used the colA origin of replication and kanamycin resistance gene for maintenance. Sequences and plasmids are available on Addgene (plasmid numbers 62557-62570).
# DH5α cells transformed with pJKR plasmids and maintained with carbenicillin were used in the induction assays. For each induction evaluation experiment, the cells were grown overnight to saturation before being diluted 1:100 into fresh LB media and incubated at 200 RPM and 37° C. After four hours, 150 μl of the log-phase cells were transferred to 96-well plates and stock inducer was added to achieve the desired range of induction concentrations. Three separate wells were inoculated and independently supplemented with the appropriate amount of inducing chemical for each level of induction. Measurements were made on the same Biotek (Winooksi, Vt.) HT plate reader using the same settings: excitation 485/20, emission 528/20, 37° C. and fast shaking. Fluorescence and absorbance were measured every 10 minutes for 15 hours. Fluorescence was measured in arbitrary units (AFU) while optical density was determined by absorbance (OD). […]
# TtgR biosensor = TtgR biosensor induction with phenol and related compounds; format: cell-based, E. coli; settings: 0.1% phenol, 0.1% catechol, up to 0.4% benzene; fluorescence after 90 minutes
# Description: All experiments were carried out in triplicate.
# DH5α cells transformed with pJKR plasmids and maintained with carbenicillin were used in the induction assays. For each induction evaluation experiment, the cells were grown overnight to saturation before being diluted 1:100 into fresh LB media and incubated at 200 RPM and 37° C. After four hours, 150 μl of the log-phase cells were transferred to 96-well plates and stock inducer was added to achieve the desired range of induction concentrations. Three separate wells were inoculated and independently supplemented with the appropriate amount of inducing chemical for each level of induction. Measurements were made on the same Biotek (Winooksi, Vt.) HT plate reader using the same settings: excitation 485/20, emission 528/20, 37° C. and fast shaking. Fluorescence and absorbance were measured every 10 minutes for 15 hours. Fluorescence was measured in arbitrary units (AFU) while optical density was determined by absorbance (OD). Normalized fluorescence was determined by dividing fluorescence by optical density for a given measurement. Five independent wells containing control strains, transformed with pUC19, were included to provide a measurement of background autofluorescence.
structure (smiles),measurement,setting,value
Cc1c2c(c(O)c3c(O)cccc13)C(=O)[C@]1(O)C(=O)C(C(N)=O)=C(O)[C@@H](N(C)C)[C@@H]1C2 [anhydrotetracycline],concentration at which growth defect was observed,"DH5α cells; E. coli, defect likely due to solvent ethanol",0.43 µM
"OC1OC[C@H](O)[C@H](O)[C@H]1O (stereo partly shown) [Arabinose, arabinose]",Hill Coefficient,[1]; high copy,1.3 ± 0.1
same,Max Expression Velocity,[1]; high copy,3150 ± 60 s⁻¹
same,Hill Coefficient,[1]; low copy,1.3 ± 0.2
same,Max Expression Velocity,[1]; low copy,1260 ± 50 s⁻¹
O=C1C[C@@H](c2ccc(O)cc2)Oc2cc(O)cc(O)c21 [naringenin],concentration at which toxicity was observed,DH5α cells,≥ 330 µM
"CC[C@H]1OC(=O)[C@H](C)[C@@H](O[C@H]2C[C@@](C)(OC)[C@@H](O)[C@H](C)O2)[C@H](C)[C@@H](O[C@@H]2O[C@H](C)C[C@H](N(C)C)[C@H]2O)[C@](C)(O)C[C@@H](C)C(=O)[C@H](C)[C@@H](O)[C@]1(C)O [Erythromycin, erythromycin]",Hill Coefficient,[2]; high copy,1.6 ± 0
same,Max Expression Velocity,[2]; high copy,2070 ± 20 s⁻¹
same,Hill Coefficient,[2]; low copy,1.6 ± 0.1
same,Max Expression Velocity,[2]; low copy,66 ± 1 s⁻¹
same,Toxicity in induction experiment,"E. coli DH5α cells; 1400 μM and 450 μM erythromycin, low-copy MphR",high toxicity
same,Toxicity,"E. coli DH5α cells; with eryR, erythromycin up to 1.4 mM",only slight toxicity
"O=C1C[C@@H](c2ccc(O)cc2)Oc2cc(O)cc(O)c21 [Naringenin, naringenin]",Hill Coefficient,[3]; high copy,3.8 ± 0.6
same,Max Expression Velocity,[3]; high copy,180 ± 6 s⁻¹
same,Hill Coefficient,[3]; low copy,2.3 ± 0.4
same,Max Expression Velocity,[3]; low copy,25 ± 1 s⁻¹
CC[C@H]1OC(=O)[C@H](C)[C@@H](O[C@H]2C[C@@](C)(OC)[C@@H](O)[C@H](C)O2)[C@H](C)[C@@H](O[C@@H]2O[C@H](C)C[C@H](N(C)C)[C@H]2O)[C@](C)(O)C[C@@H](C)C(=O)[C@H](C)[C@@H](O)[C@]1(C)O [erythromycin],concentration at which toxicity was observed,DH5α cells,≥ 50 µM
same,concentration up to which only slight toxicity was observed,DH5α cells; with expression of the erythromycin resistance gene (eryR),up to 1.4 mM
O=C[C@@H](O)[C@H](O)[C@H](O)CO [arabinose],effect on growth,DH5α cells,higher growth rates
"Cc1c2c(c(O)c3c(O)cccc13)C(=O)[C@]1(O)C(=O)C(C(N)=O)=C(O)[C@@H](N(C)C)[C@@H]1C2 [Anhydrotetracycline, anhydrotetracycline]",Hill Coefficient,[4]; high copy,4.2 ± 0.1
same,Max Expression Velocity,[4]; high copy,1760 ± 10 s⁻¹
same,Fold Induction,[4]; high copy,63 ± 3 fold
same,EC50,[4]; high copy,81 ± 1 nM
same,Hill Coefficient,[4]; low copy,3.1 ± 0.3
same,Max Expression Velocity,[4]; low copy,116 ± 2 s⁻¹
same,Fold Induction,[4]; low copy,>50 fold
same,EC50,[4]; low copy,54 ± 2 nM
c1ccccc1 [benzene],fluorescent response of TtgR biosensor,TtgR biosensor,background levels of fluorescence
O=C(O)[C@@H](O)[C@@H](O)[C@H](O)[C@@H](O)C(=O)O [glucarate],effect on growth,DH5α cells,more modest growth benefits
CCO [ethanol],effect on growth,DH5α cells,more modest growth benefits
Oc1ccccc1 [phenol],fluorescent response of TtgR biosensor,TtgR biosensor,activated the sensor
